Experimental data taken from ChEMBL document CHEMBL3045901, “Aryldiones incorporating a [1,4,5]oxadiazepane ring. Part 2: chemistry and biology of the cereal herbicide pinoxaden” (Pest Manag Sci, 2011).
Values after ≈ are worked out from the molar mass of the structure shown.

Key:
[1] = test system: Lolium perenne; assay: Herbicidal activity against Lolium perenne (perennial ryegrass) assessed as weed control at 30 g/ha under greenhouse measured after 21 days by post-emergence test; type: functional
[2] = test system: Alopecurus myosuroides; assay: Herbicidal activity against Alopecurus myosuroides assessed as weed control at 30 g/ha under greenhouse measured after 21 days by post-emergence test; type: functional
[3] = test system: Triticum aestivum; assay: Herbicidal activity against Triticum aestivum (wheat) assessed as weed control at 30 g/ha under greenhouse measured after 21 days by post-emergence test; type: functional
[4] = test system: Hordeum vulgare; assay: Herbicidal activity against Hordeum vulgare (barley) assessed as weed control at 30 g/ha under greenhouse measured after 21 days by post-emergence test; type: functional
[5] = test system: Setaria faberi; assay: Herbicidal activity against Setaria faberi (Giant Foxtail) assessed as weed control at 30 g/ha under greenhouse measured after 21 days by post-emergence test; type: functional
[6] = test system: Avena fatua; assay: Herbicidal activity against Avena fatua assessed as weed control at 30 g/ha under greenhouse measured after 21 days by post-emergence test; type: functional
[7] = Aqueous hydrolysis of the compound at pH 9 at 20 degC; type: physicochemical; details: aqueous solution, read-out: DT50 (converted)
[8] = Lipophilicity, log P of the compound at pH5 at 20 degC; type: physicochemical; details: buffer, pH 5
[9] = Lipophilicity, log P of the compound at pH7 at 20 degC; type: physicochemical; details: buffer, pH 7
[10] = Aqueous hydrolysis of the compound at pH 4 at 20 degC; type: physicochemical; details: aqueous solution, read-out: DT50 (converted)
[11] = Dissociation constant, pKa of the compound; type: physicochemical
[12] = Solubility in water at pH5 at 20 degC; type: physicochemical; details: pH 5
[13] = Solubility in water at pH7 at 20 degC; type: physicochemical; details: pH 7
[14] = Aqueous hydrolysis of the compound at pH 7 at 20 degC; type: physicochemical; details: aqueous solution, read-out: DT50 (converted)
[15] = Aqueous hydrolysis of the compound at pH 5 at 20 degC; type: physicochemical; details: aqueous solution, read-out: DT50 (converted)

Structure (SMILES)	Activity [1] [%]	Activity [2] [%]	Activity [3] [%]	Activity [4] [%]	Activity [5] [%]	Activity [6] [%]	half-life [7] [h]	logD [8]	logD [9]	half-life [10] [h]	pKa [11]	solubility [12] [µg/mL]	solubility [13] [µg/mL]	half-life [14] [h]	half-life [15] [h]
CCc1cc(C)cc(CC)c1C1C(=O)N2CCOCN2C1=O (centres undefined)	10	0	0	0	10	40	–	–	–	–	–	–	–	–	–
C#Cc1cc(C)cc(OC)c1C1C(=O)N2CCOCCN2C1=O	100	20	0	0	90	0	–	–	–	–	–	–	–	–	–
CCc1cc(C)cc(CC)c1C1C(=O)N2CCOC(C)CN2C1=O (centres undefined)	90	60	0	0	90	40	–	–	–	–	–	–	–	–	–
CCc1cc(C)cc(CC)c1C1C(=O)N2CCOC(CC)CN2C1=O (centres undefined)	80	20	0	0	20	40	–	–	–	–	–	–	–	–	–
CCc1cc(C)cc(CC)c1C1C(=O)N2C[C@H]3CC[C@@H](CN2C1=O)O3 (some centres undefined)	80	40	0	0	80	80	–	–	–	–	–	–	–	–	–
CCc1cc(C)cc(CC)c1C1C(=O)N2CCC(O)CCN2C1=O	90	100	80	40	90	100	–	–	–	–	–	–	–	–	–
CCc1cc(CC)c(C2C(=O)N3CCOCCN3C2=O)c(CC)c1	60	40	0	0	40	60	–	–	–	–	–	–	–	–	–
CCc1cc(C)cc(C)c1C1C(=O)N2CCOCCN2C1=O	60	60	20	40	60	80	–	–	–	–	–	–	–	–	–
CCc1cc(C)cc(CC)c1C1C(=O)N2C(C)COCC(C)N2C1=O (centres undefined)	40	60	0	0	80	50	–	–	–	–	–	–	–	–	–
CCc1cc(C)cc(CC)c1C1C(=O)N2COC(C)CN2C1=O (centres undefined)	60	40	10	20	90	100	–	–	–	–	–	–	–	–	–
CCc1cccc(CC)c1C1C(=O)N2CCOCCN2C1=O	0	0	0	0	90	0	–	–	–	–	–	–	–	–	–
C#Cc1cc(C)cc(CC)c1C1C(=O)N2CCOCCN2C1=O	100	100	50	50	100	100	–	–	–	–	–	–	–	–	–
C#Cc1cc(C)cc(C#C)c1C1C(=O)N2CCOCCN2C1=O	80	80	20	20	90	90	–	–	–	–	–	–	–	–	–
CCc1cc(C)cc(CC)c1C1C(=O)N2CC(C)OC(C)CN2C1=O (centres undefined)	80	50	0	0	90	90	–	–	–	–	–	–	–	–	–
CCc1cc(C)c(C2C(=O)N3CCOCCN3C2=O)c(CC)c1	60	0	0	0	60	50	–	–	–	–	–	–	–	–	–
Cc1cc(C)c(C2C(=O)N3CCOCCN3C2=O)c(C)c1	80	10	0	0	50	60	–	–	–	–	–	–	–	–	–
Cc1cc(C)c(C2C(=O)N3CCOCCN3C2=O)c(C(C)C)c1	50	0	0	0	20	50	–	–	–	–	–	–	–	–	–
C#Cc1cc(C)cc(C)c1C1C(=O)N2CCOCCN2C1=O	90	80	50	40	100	100	–	–	–	–	–	–	–	–	–

Structure (SMILES)	Activity [1] [%]	Activity [2] [%]	Activity [3] [%]	Activity [4] [%]	Activity [5] [%]	Activity [6] [%]	half-life [7] [h]	logD [8]	logD [9]	half-life [10] [h]	pKa [11]	solubility [12] [µg/mL]	solubility [13] [µg/mL]	half-life [14] [h]	half-life [15] [h]
Cc1cc(C)c(C2C(=O)N3CCOCCN3C2=O)c(Br)c1	90	0	0	0	40	40	–	–	–	–	–	–	–	–	–
CCc1cc(C)cc(CC)c1C1C(=O)N2C[C@H]3COC[C@H]3CN2C1=O (some centres undefined)	90	100	40	0	100	100	–	–	–	–	–	–	–	–	–
CCc1cc(I)cc(CC)c1C1C(=O)N2CCOCCN2C1=O	0	0	0	0	0	0	–	–	–	–	–	–	–	–	–
CCc1cc(-c2ccccc2)cc(OC)c1C1C(=O)N2CCOCCN2C1=O	90	80	90	90	90	100	–	–	–	–	–	–	–	–	–
Cc1cc(Br)c(C2C(=O)N3CCOCCN3C2=O)c(Br)c1	10	0	0	0	10	40	–	–	–	–	–	–	–	–	–
CC#Cc1cc(C)cc(C)c1C1C(=O)N2CCOCCN2C1=O	60	0	10	10	40	40	–	–	–	–	–	–	–	–	–
CCc1cc(C)cc(CC)c1C1C(=O)N2CCCOCN2C1=O (centres undefined)	40	0	0	0	10	40	–	–	–	–	–	–	–	–	–
Cc1cc(C)c(C2C(=O)N3CCOCCN3C2=O)c(C2CC2)c1	50	0	0	0	60	90	–	–	–	–	–	–	–	–	–
COc1cc(C)cc(Br)c1C1C(=O)N2CCOCCN2C1=O	100	20	10	20	60	60	–	–	–	–	–	–	–	–	–
CCc1cc(-c2ccccc2)cc(CC)c1C1C(=O)N2CCOCCN2C1=O	80	90	80	80	80	90	–	–	–	–	–	–	–	–	–
CCc1cc(C)cc(OC)c1C1C(=O)N2CCOCCN2C1=O	80	90	50	50	100	90	–	–	–	–	–	–	–	–	–
CCc1cc(C)cc(CC)c1C1C(=O)N2CCC(C)(O)CCN2C1=O	100	100	80	90	90	80	–	–	–	–	–	–	–	–	–
CCc1cc(C)cc(CC)c1C1C(=O)N2COC(CC)CN2C1=O (centres undefined)	100	90	60	20	90	100	–	–	–	–	–	–	–	–	–
C#Cc1cc(C)c(C2C(=O)N3CCOCCN3C2=O)c(CC)c1	10	20	0	10	20	20	–	–	–	–	–	–	–	–	–
CCc1cc(C)cc(CC)c1C1C(=O)N2CCOCCN2C1=O [PINOXADEN DIONE]	90	100	10	0	90	100	< 24	0.62	-1.1	< 24	3.82	5200 (≈ 16.4 mM)	> 300000	< 24	< 24
CCCc1cc(C)cc(CCC)c1C1C(=O)N2CCOCCN2C1=O	0	50	0	0	90	80	–	–	–	–	–	–	–	–	–
CCCc1cc(C)cc(C)c1C1C(=O)N2CCOCCN2C1=O	60	20	0	0	40	80	–	–	–	–	–	–	–	–	–
